Experimental data published in ChEMBL document CHEMBL1201861, “Genomics of Drug Sensitity in Cancer screening data, Wellcome Trust Sanger Institute”.

Key:
Assay in all cases: cells
Format in all cases: functional, cell-based, Homo sapiens
CAL-85-1 = test system: CAL-85-1;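 also: growth inhibition of human CAL-85-1 cells, read out with a cell viability assay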
Description: SANGER: Inhibition of human CAL-85-1 cell growth in a cell viability assay.

NCI-H526 = test system: NCI-H526;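 also: growth inhibition of the human NCI-H526 cell line, measured by a cell viability assay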
Description: SANGER: Inhibition of human NCI-H526 cell growth in a cell viability assay.

SCC-15 = test system: SCC-15;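 also: growth inhibition of SCC-15 cells, read out with a cell viability assay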
Description: SANGER: Inhibition of human SCC-15 cell growth in a cell viability assay.

NCI-H1693 = test system: NCI-H1693;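 also: growth inhibition of the human cell line, read out with a cell viability assay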
Description: SANGER: Inhibition of human NCI-H1693 cell growth in a cell viability assay.

D283 Med = test system: D283 Med
Description: SANGER: Inhibition of human D-283MED cell growth in a cell viability assay.

LAN-6 = test system: LAN-6;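 also: growth inhibition of LAN-6 cells, determined with a cell viability assay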
Description: SANGER: Inhibition of human LAN-6 cell growth in a cell viability assay.

BXPC-3 = test system: BXPC-3;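 also: growth inhibition of human BxPC-3 cells, read out by a cell viability assay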
Description: SANGER: Inhibition of human BxPC-3 cell growth in a cell viability assay.

RPMI-8226 = test system: RPMI-8226
Description: SANGER: Inhibition of human RPMI-8226 cell growth in a cell viability assay.

5637 = test system: 5637
Description: SANGER: Inhibition of human 5637 cell growth in a cell viability assay.

NCI-H747 = test system: NCI-H747;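 also: growth inhibition of human NCI-H747 cells, read out by a cell viability assay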
Description: SANGER: Inhibition of human NCI-H747 cell growth in a cell viability assay.

CAL-148 = test system: CAL-148
Description: SANGER: Inhibition of human CAL-148 cell growth in a cell viability assay.

SUP-T1 = test system: SUP-T1;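 also: growth inhibition of human SUP-T1 cells, read out as cell viability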
Description: SANGER: Inhibition of human SUP-T1 cell growth in a cell viability assay.

NCI-H748 = test system: NCI-H748;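 also: growth inhibition of NCI-H748 cells, measured by a cell viability assay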
Description: SANGER: Inhibition of human NCI-H748 cell growth in a cell viability assay.

647-V = test system: 647-V;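 also: growth inhibition of 647-V cells, read out with a cell viability assay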
Description: SANGER: Inhibition of human 647-V cell growth in a cell viability assay.

SN12C = test system: SN12C;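 also: growth inhibition of human SN12C cells, measured by a cell viability assay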
Description: SANGER: Inhibition of human SN12C cell growth in a cell viability assay.

SW780 = test system: SW780;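 also: growth inhibition of the cells, read out with a cell viability assay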
Description: SANGER: Inhibition of human SW780 cell growth in a cell viability assay.

NALM-6 = test system: NALM-6;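 also: growth inhibition of NALM-6 cells, read out with a cell viability assay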
Description: SANGER: Inhibition of human NALM-6 cell growth in a cell viability assay.

TE-10 = test system: TE-10;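 also: growth inhibition of TE-10 cells, measured by a cell viability assay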
Description: SANGER: Inhibition of human TE-10 cell growth in a cell viability assay.

NCI-H1882 = test system: NCI-H1882;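 also: growth inhibition of the cell line, determined with a viability assay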
Description: SANGER: Inhibition of human NCI-H1882 cell growth in a cell viability assay.

HuP-T4 = test system: HuP-T4;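 also: cell viability assay measuring how much HuP-T4 cell growth is inhibited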
Description: SANGER: Inhibition of human HuP-T4 cell growth in a cell viability assay.

ARH-77 = test system: ARH-77;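 also: growth inhibition of ARH-77 cells, read out by a cell viability assay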
Description: SANGER: Inhibition of human ARH-77 cell growth in a cell viability assay.

MDA-MB-134-VI = test system: MDA-MB-134-VI
Description: SANGER: Inhibition of human MDA-MB-134-VI cell growth in a cell viability assay.

NCI-H720 = test system: NCI-H720;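 also: growth inhibition of human NCI-H720 cells determined by a cell viability assay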
Description: SANGER: Inhibition of human NCI-H720 cell growth in a cell viability assay.

GAMG = test system: GAMG;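 also: cell growth inhibition measured by a viability assay in the GAMG human cell line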
Description: SANGER: Inhibition of human GAMG cell growth in a cell viability assay.

YAPC = test system: YAPC;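 also: growth inhibition of YAPC cells, measured with a cell viability assay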
Description: SANGER: Inhibition of human YAPC cell growth in a cell viability assay.

DMS-114 = test system: DMS-114
Daudi = test system: Daudi;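 also: growth inhibition of Daudi cells, read out by a viability assay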
Description: SANGER: Inhibition of human Daudi cell growth in a cell viability assay.

TE-11 = test system: TE-11;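 also: growth inhibition of human TE-11 cells, read out by a cell viability assay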
Description: SANGER: Inhibition of human TE-11 cell growth in a cell viability assay.

A498 = test system: A498;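 also: growth inhibition of human A498 cells, read out with a cell viability assay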
Description: SANGER: Inhibition of human A498 cell growth in a cell viability assay.

23132-87 = test system: 23132-87
Description: SANGER: Inhibition of human 23132-87 cell growth in a cell viability assay.

HC-1 = test system: HC-1;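 also: growth inhibition of HC-1 cells measured by a cell viability assay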
Description: SANGER: Inhibition of human HC-1 cell growth in a cell viability assay.

S-117 = test system: S-117
Description: SANGER: Inhibition of human S-117 cell growth in a cell viability assay.

NCI-H1755 = test system: NCI-H1755;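 also: cell viability readout used to measure growth inhibition of NCI-H1755 cells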
Description: SANGER: Inhibition of human NCI-H1755 cell growth in a cell viability assay.

ES1 = test system: ES1;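 also: growth inhibition of ES1 cells, read out with a cell viability assay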
Description: SANGER: Inhibition of human ES1 cell growth in a cell viability assay.

SK-PN-DW = test system: SK-PN-DW;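 also: growth inhibition measured with a viability assay on these cells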
Description: SANGER: Inhibition of human SK-PN-DW cell growth in a cell viability assay.

IA-LM = test system: IA-LM;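 also: cell viability assay measuring growth inhibition of human IA-LM cells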
Description: SANGER: Inhibition of human IA-LM cell growth in a cell viability assay.

TE-15 = test system: TE-15;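 also: cell viability readout of growth inhibition in TE-15 cells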
Description: SANGER: Inhibition of human TE-15 cell growth in a cell viability assay.

NCI-H524 = test system: NCI-H524;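 also: growth inhibition of human NCI-H524 cells, read out through a cell viability assay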
Description: SANGER: Inhibition of human NCI-H524 cell growth in a cell viability assay.

HT = test system: HT
Description: SANGER: Inhibition of human HT cell growth in a cell viability assay.

NCI-H2122 = test system: NCI-H2122;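 also: growth inhibition of the cells, read out with a cell viability assay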
Description: SANGER: Inhibition of human NCI-H2122 cell growth in a cell viability assay.

MDA-MB-361 = test system: MDA-MB-361
U-698-M = test system: U-698-M
Description: SANGER: Inhibition of human U-698-M cell growth in a cell viability assay.

MKN-7 = test system: MKN-7;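 also: growth inhibition of MKN-7 cells, read out with a cell viability assay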
Description: SANGER: Inhibition of human MKN7 cell growth in a cell viability assay.

ABC-1 = test system: ABC-1;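 also: growth inhibition of human ABC-1 cells, read out by a cell viability assay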
Description: SANGER: Inhibition of human ABC-1 cell growth in a cell viability assay.

SR = test system: SR
Description: SANGER: Inhibition of human SR cell growth in a cell viability assay.

AN3-CA = test system: AN3-CA;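 also: growth inhibition of human AN3-CA cells measured by a cell viability assay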
Description: SANGER: Inhibition of human AN3-CA cell growth in a cell viability assay.

Question: What does the source list for `O=C(O)c1ccc(-c2c[nH]c3ncc(-c4ccccc4)cc23)cc1C1CCCC1` [GSK-650394]?
Answer: IC50 (CAL-85-1; Homo sapiens, CAL-85-1): > 16 µM; IC50 (NCI-H526; Homo sapiens, NCI-H526): 6.04 µM; IC50 (SCC-15; Homo sapiens, SCC-15): > 16 µM; IC50 (NCI-H1693; Homo sapiens, NCI-H1693): > 16 µM; IC50 (D283 Med; Homo sapiens, D283 Med): > 16 µM; IC50 (LAN-6; Homo sapiens, LAN-6): > 16 µM; IC50 (BXPC-3; Homo sapiens, BXPC-3): > 16 µM; IC50 (RPMI-8226; Homo sapiens, RPMI-8226): > 16 µM; IC50 (5637; Homo sapiens): 3.21 µM; IC50 (NCI-H747; Homo sapiens, NCI-H747): > 16 µM; IC50 (CAL-148; Homo sapiens, CAL-148): > 16 µM; IC50 (SUP-T1; Homo sapiens, SUP-T1): > 16 µM; IC50 (NCI-H748; Homo sapiens, NCI-H748): > 16 µM; IC50 (647-V; Homo sapiens, 647-V): > 16 µM; IC50 (SN12C; Homo sapiens, SN12C): > 16 µM; IC50 (SW780; Homo sapiens, SW780): > 16 µM; IC50 (NALM-6; Homo sapiens, NALM-6): 9.73 µM; IC50 (TE-10; Homo sapiens, TE-10): 14.5 µM; IC50 (NCI-H1882; Homo sapiens, NCI-H1882): > 16 µM; IC50 (HuP-T4; Homo sapiens, HuP-T4): 8.5 µM; IC50 (ARH-77; Homo sapiens, ARH-77): > 16 µM; IC50 (MDA-MB-134-VI; Homo sapiens, MDA-MB-134-VI): > 16 µM; IC50 (NCI-H720; Homo sapiens, NCI-H720): > 16 µM; IC50 (GAMG; Homo sapiens, GAMG): 3.9 µM; IC50 (YAPC; Homo sapiens, YAPC): > 16 µM; IC50 (DMS-114; Homo sapiens, DMS-114): > 16 µM; IC50 (Daudi; Homo sapiens, Daudi): > 16 µM; IC50 (TE-11; Homo sapiens, TE-11): > 16 µM; IC50 (A498; Homo sapiens, A498): > 16 µM; IC50 (23132-87; Homo sapiens): 10.3 µM; IC50 (HC-1; Homo sapiens, HC-1): > 16 µM; IC50 (S-117; Homo sapiens, S-117): > 16 µM; IC50 (NCI-H1755; Homo sapiens, NCI-H1755): > 16 µM; IC50 (ES1; Homo sapiens, ES1): > 16 µM; IC50 (SK-PN-DW; Homo sapiens, SK-PN-DW): 14.2 µM; IC50 (IA-LM; Homo sapiens, IA-LM): 4.12 µM; IC50 (TE-15; Homo sapiens, TE-15): 2.59 µM; IC50 (NCI-H524; Homo sapiens, NCI-H524): > 16 µM; IC50 (HT; Homo sapiens, HT): > 16 µM; IC50 (NCI-H2122; Homo sapiens, NCI-H2122): 3.33 µM; IC50 (MDA-MB-361; Homo sapiens, MDA-MB-361): > 16 µM; IC50 (U-698-M; Homo sapiens, U-698-M): > 16 µM; IC50 (MKN-7; Homo sapiens, MKN-7): > 16 µM; IC50 (ABC-1; Homo sapiens, ABC-1): 6.58 µM; IC50 (SR; Homo sapiens, SR): > 16 µM; IC50 (AN3-CA; Homo sapiens, AN3-CA): 7.66 µM

Question: What does the source list for BLEOMYCIN?
Answer: IC50 (CAL-85-1; cal-85-1): 0.000178 µM; IC50 (NCI-H526; nci-h526): 1.28 µM; IC50 (SCC-15; scc-15): 27.6 µM; IC50 (NCI-H1693; nci-h1693): 16.6 µM; IC50 (D283 Med; d283 med): 3.81 µM; IC50 (LAN-6; lan-6): 14.6 µM; IC50 (BXPC-3; bxpc-3): 3.81 µM; IC50 (RPMI-8226; rpmi-8226): 906 µM; IC50 5637: 0.029 µM; IC50 (NCI-H747; nci-h747): 1.21 µM; IC50 (CAL-148; cal-148): 4.6 µM; IC50 (SUP-T1; sup-t1): 0.000251 µM; IC50 (NCI-H748; nci-h748): 75.2 µM; IC50 (647-V; 647-v): 1.73 µM; IC50 (SN12C; sn12c): 315 µM; IC50 (SW780; sw780): 8140 µM; IC50 (NALM-6; nalm-6): 0.42 µM; IC50 (TE-10; te-10): 0.783 µM; IC50 (NCI-H1882; nci-h1882): 11.5 µM; IC50 (HuP-T4; hup-t4): 1.31 µM; IC50 (ARH-77; arh-77): 0.105 µM; IC50 (MDA-MB-134-VI; mda-mb-134-vi): 340 µM; IC50 (NCI-H720; nci-h720): 103 µM; IC50 (GAMG; gamg): 0.289 µM; IC50 (YAPC; yapc): 4190 µM; IC50 (DMS-114; dms-114): 6.79 µM; IC50 (Daudi; daudi): 1.67 µM; IC50 (TE-11; te-11): 6.08 µM; IC50 (A498; a498): 1020 µM; IC50 (23132-87): 0.131 µM; IC50 (HC-1; hc-1): 0.993 µM; IC50 (S-117; s-117): 90.2 µM; IC50 (NCI-H1755; nci-h1755): 26 µM; IC50 (ES1; es1): 0.0267 µM; IC50 (SK-PN-DW; sk-pn-dw): 1.45 µM; IC50 (IA-LM; ia-lm): 3.4 µM; IC50 (TE-15; te-15): 3.22 µM; IC50 (NCI-H524; nci-h524): 190 µM; IC50 (HT; ht): 5.56 µM; IC50 (NCI-H2122; nci-h2122): 0.51 µM; IC50 (MDA-MB-361; mda-mb-361): 0.719 µM; IC50 (U-698-M; u-698-m): 13 µM; IC50 (MKN-7; mkn-7): 66.5 µM; IC50 (ABC-1; abc-1): 19.7 µM; IC50 (SR; sr): 0.0297 µM; IC50 (AN3-CA; an3-ca): 2.55 µM
